From article PMC8951016, “Computational Design and Biological Evaluation of Analogs of Lupin Peptide P5 Endowed with Dual PCSK9/HMG-CoAR Inhibiting Activity” (Pharmaceutics, 2022)
Like-named read-outs stand apart in the source and are kept apart here. No end group written: not given here.

Assays:
[1] = target: T1, HMG-CoAR (catalytic domain) (Homo sapiens, UniProt P04035); test: HMG-CoAR activity assay; type: biochemical; conditions: 10–500 µM, 37 °C, NADPH oxidation, absorbance 340 nm at 0 and 10 min; four independent experiments in duplicate
T1 construct: finally the HMG-CoAR (cata- lytic domain) (2 µL); purchased Sigma-Aldrich
T1 sequence (P04035 426-888 limits assumed): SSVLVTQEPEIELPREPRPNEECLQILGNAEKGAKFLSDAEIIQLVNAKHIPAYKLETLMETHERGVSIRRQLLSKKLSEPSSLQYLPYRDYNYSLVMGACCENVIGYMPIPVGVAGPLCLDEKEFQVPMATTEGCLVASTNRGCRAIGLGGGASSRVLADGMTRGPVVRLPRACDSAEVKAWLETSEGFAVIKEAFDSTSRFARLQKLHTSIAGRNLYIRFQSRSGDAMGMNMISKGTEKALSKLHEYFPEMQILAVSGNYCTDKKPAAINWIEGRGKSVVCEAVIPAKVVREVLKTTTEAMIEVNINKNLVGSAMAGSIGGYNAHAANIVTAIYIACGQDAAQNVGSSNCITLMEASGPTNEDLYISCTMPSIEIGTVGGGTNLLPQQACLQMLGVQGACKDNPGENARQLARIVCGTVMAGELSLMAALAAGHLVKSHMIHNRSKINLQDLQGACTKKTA
Experimental: The experiments were carried out following the manufacturer instructions and optimized protocol. See Supplementary Materials for further details. […]
cLex Co., Nagano, Japan). The peptides (P5, P5-Best, P-H6A, and P5-S7A) were synthe-sized by the company GeneScript (Piscataway, NJ, USA) at >95% purity. The antibody against HMG-CoAR was bought from Abcam (Cambridge, UK). Phenylmethanesulfonyl fluoride (PMSF), Na-orthovanadate inhibitors, and the antibodies against rabbit Ig-horse-radish peroxidase (HRP), mouse Ig-HRP, and SREBP-2 (which recognizes epitope located in a region between 833–1141 and bands at about 132 kDa) were purchased from Santa Cruz Biotechnology Inc. (Santa Cruz, CA, USA). The antibodies against hepatocyte nu-clear factor 1-alpha (HNF1-alpha) and PCSK9 were bought from GeneTex (Irvine, CA, USA). The inhibitor cocktail Complete Midi was from Roche (Basel, Switzerland). Mini protean TGX pre-cast gel 7.5% and Mini nitrocellulose Transfer Packs were purchased from BioRad (Hercules, CA, USA).
HepG2 Cell Culture Conditions and Treatment. The HepG2 cell line was bought from ATCC (HB-8065, ATCC from LGC Standards, Milan, Italy) and was cultured in DMEM high glucose with stable L-glutamine, supplemented with 10% FBS, 100 U/mL penicillin, 100 µg/mL streptomycin (complete growth medium) with incubation at 37 °C […]
HMG-CoAR Aactivity Assay. The experiments were carried out following the man-ufacturer instructions and optimized protocol. The assay buffer, NADPH, substrate solution, and HMG-CoAR were provided in the HMG-CoAR Assay Kit (Sigma Aldrich SRL, Milan, Italy). […] Subsequently, the samples were mixed and the absorbance at 340 nm read by the microplate reader Synergy H1 (Winooski, VT, USA) at time 0 and 10 min. The HMG-CoAR-dependent oxidation of NADPH and the inhibition properties of peptides were measured by absorbance reduction, which is directly proportional to enzyme activ- […]
(§1) In Vitro PCSK9-LDLR Binding Assay. […] The reaction was stopped with 2.0 M sulfuric acid and the absorbance at 450nm was measured using the Synergy H1 fluorescent plate reader […]

PCSK9-LDLR [2] = target: T2, PCSK9-LDLR (Homo sapiens, UniProt Q8NBP7); test: In vitro PCSK9-LDLR binding assay; conditions: 0.1–100 µM, LDLR-AB coated plate, 2 h at RT, absorbance 450 nm; four independent experiments in duplicate
T2 construct: purchased CycLex Co., Nagano, Japan (CircuLex)
Experimental: Peptides P5 and P5 analogs (0.1–100 µM) were tested using the in vitro PCSK9-LDLR binding assay (CycLex Co., Nagano, Japan) following the manufacture instructions and conditions already optimized. Further details are provided in Supplementary Materials. […]
cLex Co., Nagano, Japan). The peptides (P5, P5-Best, P-H6A, and P5-S7A) were synthe-sized by the company GeneScript (Piscataway, NJ, USA) at >95% purity. The antibody against HMG-CoAR was bought from Abcam (Cambridge, UK). Phenylmethanesulfonyl fluoride (PMSF), Na-orthovanadate inhibitors, and the antibodies against rabbit Ig-horse-radish peroxidase (HRP), mouse Ig-HRP, and SREBP-2 (which recognizes epitope located in a region between 833–1141 and bands at about 132 kDa) were purchased from Santa Cruz Biotechnology Inc. (Santa Cruz, CA, USA). […]
HMG-CoAR Aactivity Assay. […] Subsequently, the samples were mixed and the absorbance at 340 nm read by the microplate reader Synergy H1 (Winooski, VT, USA) at time 0 and 10 min. The HMG-CoAR-dependent oxidation of NADPH and the inhibition properties of peptides were measured by absorbance reduction, which is directly proportional to enzyme activ- […]
as §1

PCSK9 = tested on: PCSK9; parameters: method as in 3 sources, ref 49 = [49]; PMID 35011066; doi:10.3390/nu14010193; 49. Macchi C. Greco M.F. Ferri N. Magni P. Arnoldi A. Corsini A. Sirtori C.R. Ruscica M. Lammi C. Impact of Soy β-Conglycinin Peptides on PCSK9 Protein Expression in HepG2 Cells Nutrients 2021 14 193 ||| ref 22 = [22]; doi:10.1016/j.jff.2017.02.009; 22. Zanoni C. Aiello G. Arnoldi A. Lammi C. Investigations on the hypocholesterolaemic activity of […] and LTFPGSAED, two peptides from lupin β-conglutin: Focus on LDLR and PCSK9 pathways J. Fu ||| ref 24 = [24]; PMID 33808034; doi:10.3390/nu13030863; 24. Lammi C. Aiello G. Bollati C. Li J. Bartolomei M. Ranaldi G. Ferruzza S. Fassi E.M.A. Grazioso G. Sambuy Y. Trans-Epithelial Transport, Metabolism, and Biological Activity Assessment of the Multi-; conditions: cellular level, through modulation of HNF-1α; cited from earlier work
PCSK9-LDLR [3] = target: T2, PCSK9-LDLR; conditions: cited from earlier work; for impairment of PCSK9-LDLR binding vs control: fixed concentration of 100 µM
LDLR = tested on: LDLR; parameters: method as in 3 sources, ref 48 = [48]; doi:10.1111/jfbc.12757; 48. Lammi C. Zanoni C. Arnoldi A. Aiello G. […] (P3), a peptide from lupin protein, absorbed by Caco-2 cells, modulates cholesterol metabolism in HepG2 cells via SREBP-1 activation J. Food B ||| ref 22 = [22]; doi:10.1016/j.jff.2017.02.009; 22. Zanoni C. Aiello G. Arnoldi A. Lammi C. Investigations on the hypocholesterolaemic activity of […] and LTFPGSAED, two peptides from lupin β-conglutin: Focus on LDLR and PCSK9 pathways J. Fu ||| ref 24 = [24]; PMID 33808034; doi:10.3390/nu13030863; 24. Lammi C. Aiello G. Bollati C. Li J. Bartolomei M. Ranaldi G. Ferruzza S. Fassi E.M.A. Grazioso G. Sambuy Y. Trans-Epithelial Transport, Metabolism, and Biological Activity Assessment of the Multi-; conditions: cellular level, through modulation of SREBP-2; cited from earlier work
[4] = target: T1, HMG-CoAR (catalytic domain); conditions: metabolite; read-out: IC50, HMG-CoAR activity (P5-met); cited from earlier work
[5] = read-out: IC50, PCSK9-LDLR binding (Pep2-8 analogs)

T2 sequence (Q8NBP7 153-692): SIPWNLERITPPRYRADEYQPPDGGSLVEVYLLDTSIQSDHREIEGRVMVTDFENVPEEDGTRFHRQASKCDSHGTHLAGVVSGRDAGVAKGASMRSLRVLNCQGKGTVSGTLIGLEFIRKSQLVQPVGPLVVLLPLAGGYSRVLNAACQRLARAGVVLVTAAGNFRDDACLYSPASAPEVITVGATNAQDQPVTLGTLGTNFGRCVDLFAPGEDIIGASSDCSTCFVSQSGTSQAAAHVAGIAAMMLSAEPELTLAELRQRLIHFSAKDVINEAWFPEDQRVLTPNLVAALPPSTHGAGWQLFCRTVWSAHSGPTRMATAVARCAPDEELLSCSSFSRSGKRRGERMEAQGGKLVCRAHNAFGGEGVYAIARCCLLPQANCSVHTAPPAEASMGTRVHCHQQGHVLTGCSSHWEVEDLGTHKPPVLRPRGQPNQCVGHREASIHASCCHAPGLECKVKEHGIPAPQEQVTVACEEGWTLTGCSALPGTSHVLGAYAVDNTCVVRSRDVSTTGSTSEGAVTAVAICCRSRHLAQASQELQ
T2 sequence (Q8NBP7 31-152 partner limits assumed): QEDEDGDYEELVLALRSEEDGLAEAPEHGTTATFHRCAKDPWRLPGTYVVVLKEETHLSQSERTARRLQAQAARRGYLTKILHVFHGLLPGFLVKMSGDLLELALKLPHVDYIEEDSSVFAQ

IC50 [1]	IC50 (PCSK9-LDLR [2])	Substance	impairment of PCSK9-LDLR binding vs control (PCSK9-LDLR [3])	IC50 (PCSK9-LDLR [3]; [5])	further results
74.4 µM	9 µM	LILPKASDAD [Peptide P5-H6A]			
73.8 µM	1.45 µM	LILPKHADAD [Peptide P5-S7A]			
88.9 µM		LYLPKHSDRD [Peptide P5-Best]			

More lines, now with the values behind:

Substance	IC50 [1]	IC50 (PCSK9-LDLR [2])	impairment of PCSK9-LDLR binding vs control (PCSK9-LDLR [3])	IC50 (PCSK9-LDLR [3]; [5])	further results
LPKHSDAD [Peptide P5-met, breakdown fragment (metabolite) of P5]					PCSK9 level (P5-met, words) (PCSK9): reduces PCSK9 levels; IC50 (PCSK9-LDLR [3]; metabolite, read-out: IC50, PCSK9-LDLR binding (P5-met)): 1.7 µM; LDLR level (P5-met, words) (LDLR): improves the LDLR; IC50 [4]: 175 µM
[T4R,W12Y]Pep2-8: analog of peptide Pep2-8 (TVFRSWEEYLDYV)			−93.0%	14.5 ± 1.3 µM	
[Y9A]Pep2-8: analog of peptide Pep2-8 (TVFTSWEEALDWV)			−69.8%	27.1 ± 1.2 µM	
